Laboratory results taken from PubChem BioAssay (NCI).
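Following 48 hours of exposure in 96-well plates, responses at five concentrations were used to interpolate endpoints linearly. GI50: concentration for 50% inhibition of growth. The concentration for full growth arrest is given as TGI.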

Key:
Assay in all cases: NCI-60 cell line screen, 48 h
BT-549 breast = test system: BT-549 breast
HCT-116 colon = test system: HCT-116 colon
SF-268 CNS = test system: SF-268 CNS
A549 NSCLC = test system: A549 NSCLC
K-562 leukemia = test system: K-562 leukemia
MOLT-4 leukemia = test system: MOLT-4 leukemia
OVCAR-5 ovarian = test system: OVCAR-5 ovarian
CAKI-1 renal = test system: CAKI-1 renal
ACHN renal = test system: ACHN renal
T-47D breast = test system: T-47D breast
A498 renal = test system: A498 renal
SN12C renal = test system: SN12C renal
M14 melanoma = test system: M14 melanoma
SW-620 colon = test system: SW-620 colon
OVCAR-8 ovarian = test system: OVCAR-8 ovarian
CCRF-CEM leukemia = test system: CCRF-CEM leukemia
KM12 colon = test system: KM12 colon
NCI/ADR-RES ovarian = test system: NCI/ADR-RES ovarian
SK-OV-3 ovarian = test system: SK-OV-3 ovarian
MDA-MB-231 breast = test system: MDA-MB-231 breast
SR leukemia = test system: SR leukemia
HL-60(TB) leukemia = test system: HL-60(TB) leukemia
COLO 205 colon = test system: COLO 205 colon
MALME-3M melanoma = test system: MALME-3M melanoma
IGROV1 ovarian = test system: IGROV1 ovarian
EKVX NSCLC = test system: EKVX NSCLC
OVCAR-4 ovarian = test system: OVCAR-4 ovarian
MCF7 breast = test system: MCF7 breast
SF-295 CNS = test system: SF-295 CNS
SNB-75 CNS = test system: SNB-75 CNS
TK-10 renal = test system: TK-10 renal
UACC-62 melanoma = test system: UACC-62 melanoma
SK-MEL-2 melanoma = test system: SK-MEL-2 melanoma
OVCAR-3 ovarian = test system: OVCAR-3 ovarian
U251 CNS = test system: U251 CNS
SK-MEL-28 melanoma = test system: SK-MEL-28 melanoma
DU-145 prostate = test system: DU-145 prostate
UO-31 renal = test system: UO-31 renal
RXF 393 renal = test system: RXF 393 renal
HS 578T breast = test system: HS 578T breast
786-0 renal = test system: 786-0 renal
SK-MEL-5 melanoma = test system: SK-MEL-5 melanoma
UACC-257 melanoma = test system: UACC-257 melanoma
HCC-2998 colon = test system: HCC-2998 colon
HT29 colon = test system: HT29 colon
HCT-15 colon = test system: HCT-15 colon
HOP-62 NSCLC = test system: HOP-62 NSCLC
NCI-H522 lung = test system: NCI-H522 lung
NCI-H226 lung = test system: NCI-H226 lung
HOP-92 NSCLC = test system: HOP-92 NSCLC
SNB-19 CNS = test system: SNB-19 CNS
RPMI-8226 leukemia = test system: RPMI-8226 leukemia
SF-539 CNS = test system: SF-539 CNS
NCI-H23 lung = test system: NCI-H23 lung
LOX IMVI melanoma = test system: LOX IMVI melanoma
NCI-H460 lung = test system: NCI-H460 lung
PC-3 prostate = test system: PC-3 prostate

## COc1ccc([C@H]2[C@H](O)C(=O)N2c2cc(OC)c(OC)c(OC)c2)cc1O
BT-549 breast
  GI50: < 15.1 nM
  TGI: 211 nM
HCT-116 colon
  GI50: < 10 nM
  TGI: > 100000 nM
SF-268 CNS
  GI50: 30.6 nM
  TGI: > 100000 nM
A549 NSCLC
  GI50: 32.1 nM
  TGI: > 100000 nM
K-562 leukemia
  GI50: < 15.8 nM
  TGI: > 100000 nM
MOLT-4 leukemia
  GI50: < 19.2 nM
  TGI: > 100000 nM
OVCAR-5 ovarian
  GI50: 37.7 nM
  TGI: > 100000 nM
CAKI-1 renal
  GI50: < 15.3 nM
  TGI: > 100000 nM
ACHN renal
  GI50: < 18.1 nM
  TGI: > 100000 nM
T-47D breast
  GI50: > 100000 nM
  TGI: > 100000 nM
A498 renal
  GI50: > 100000 nM
  TGI: > 100000 nM
SN12C renal
  GI50: < 16.9 nM
  TGI: > 100000 nM
M14 melanoma
  GI50: < 16.3 nM
  TGI: > 100000 nM
SW-620 colon
  GI50: < 18.2 nM
  TGI: > 100000 nM
OVCAR-8 ovarian
  GI50: < 16.3 nM
CCRF-CEM leukemia
  GI50: < 16.7 nM
  TGI: > 100000 nM
KM12 colon
  GI50: < 15.3 nM
  TGI: > 100000 nM
NCI/ADR-RES ovarian
  GI50: 33.3 nM
  TGI: > 100000 nM
SK-OV-3 ovarian
  GI50: 33.2 nM
  TGI: > 100000 nM
MDA-MB-231 breast
  GI50: < 17.8 nM
  TGI: > 100000 nM
SR leukemia
  GI50: < 12.4 nM
  TGI: > 100000 nM
HL-60(TB) leukemia
  GI50: < 13.6 nM
COLO 205 colon
  GI50: 238 nM
  TGI: 1210 nM
MALME-3M melanoma
  GI50: < 28.4 nM
  TGI: > 100000 nM
IGROV1 ovarian
  GI50: < 20.6 nM
  TGI: > 100000 nM
EKVX NSCLC
  TGI: > 100000 nM
OVCAR-4 ovarian
  GI50: 4780 nM
  TGI: > 100000 nM
MCF7 breast
  GI50: < 10 nM
  TGI: > 100000 nM
SF-295 CNS
  GI50: 33.7 nM
  TGI: > 100000 nM
SNB-75 CNS
  GI50: 28.2 nM
  TGI: > 100000 nM
TK-10 renal
  GI50: > 100000 nM
  TGI: > 100000 nM
UACC-62 melanoma
  GI50: < 23.2 nM
  TGI: > 100000 nM
SK-MEL-2 melanoma
  GI50: 40 nM
  TGI: > 100000 nM
OVCAR-3 ovarian
  GI50: < 18 nM
U251 CNS
  GI50: 21.7 nM
  TGI: > 100000 nM
SK-MEL-28 melanoma
  GI50: 55.1 nM
  TGI: > 100000 nM
DU-145 prostate
  GI50: < 19.6 nM
  TGI: > 100000 nM
UO-31 renal
  GI50: 50.3 nM
  TGI: > 100000 nM
RXF 393 renal
  GI50: 60.2 nM
  TGI: > 100000 nM
HS 578T breast
  GI50: 20 nM
  TGI: > 100000 nM
786-0 renal
  GI50: < 20.8 nM
  TGI: > 100000 nM
SK-MEL-5 melanoma
  GI50: < 15.5 nM
  TGI: 59.4 nM
UACC-257 melanoma
  TGI: > 100000 nM
HCC-2998 colon
  GI50: 39.1 nM
  TGI: > 100000 nM
HT29 colon
  GI50: 202 nM
  TGI: 1760 nM
HCT-15 colon
  GI50: 22.7 nM
  TGI: > 100000 nM
HOP-62 NSCLC
  GI50: < 22.4 nM
  TGI: > 100000 nM
NCI-H522 lung
  GI50: < 10 nM
  TGI: < 14 nM
NCI-H226 lung
  GI50: < 10 nM
  TGI: 2270 nM
HOP-92 NSCLC
  GI50: 43.8 nM
  TGI: > 100000 nM
SNB-19 CNS
  GI50: 48.5 nM
  TGI: > 100000 nM
RPMI-8226 leukemia
  GI50: < 21.4 nM
  TGI: > 100000 nM
SF-539 CNS
  GI50: < 10 nM
  TGI: 43.6 nM
NCI-H23 lung
  GI50: 37.9 nM
  TGI: > 100000 nM
LOX IMVI melanoma
  GI50: < 10 nM
  TGI: > 100000 nM
NCI-H460 lung
  GI50: < 18.3 nM
  TGI: > 100000 nM
PC-3 prostate
  GI50: < 19 nM
  TGI: > 100000 nM
